The test system of data set [1] is TGF-β signalling (PAI-1 promoter luciferase reporter in HepG2 cells). Briefly: Assay 1: PAI-1 promoter firefly luciferase reporter in HepG2 cells exposed to TGF-β. The settings on record: for IC50: Homo sapiens, HepG2, read-out: IC50 value in Assay 1.
Experimental: The assay was performed in HepG2 cells stably transfected with the PAI-1 promoter (known to be a strong TGF-β responsive promoter) linked to a luciferase (firefly) reporter gene. The compounds were selected on their ability to inhibit luciferase activity in cells exposed to TGF-β. In addition cells were transfected with a second luciferase (Renilla) gene which was not driven by a TGF-β responsive promoter and was used as a toxicity control.
(96 well-)microplates are seeded, using a multidrop apparatus, with the stably transfected cell line at a concentration of 35000 cells per well in 200 μl of serum-containing medium. These plates are placed in a cell incubator.
18 to 24 hours later (Day 2), cell-incubation procedure is launched. Cells are incubated with TGF-β and a candidate compound (TGF-β inhibitor) at concentrations in the range 50 nM to 10 μM (final concentration of DMSO 1%). The final concentration of TGF-β (rhTGFβ1) used in the test is 1 ng/mL. […] The final volume of the test reaction is 150 μl. Each well contains only one candidate compound and its effect on the PAI-1 promoter is monitored.
Columns 11 and 12 are employed as controls. Column 11 contains 8 wells in which the cells are incubated in the presence of TGF-β, without a candidate compound. Column 11 is used to determine the ‘reference TGF-β induced firefly luciferase value’ against which values measured in the test wells (to quantify inhibitory activity) may be compared. In wells A12 to D12, cells are grown in medium without TGF-β. The firefly luciferase values obtained from these positions are representive of the ‘basal firefly luciferase activity’. In wells E12 to H12, cells are incubated in the presence of TGF-β and 500 μM CPO (Cyclopentenone, Sigma), a cell toxic compound.
12 to 18 hours later (day 3), the luciferase quantification procedure is launched. The following reactions are performed using reagents obtained from a Dual Luciferase Assay Kit (Promega). Cells are washed and lysed with the addition of 10 μl of passive lysis buffer (Promega). Following agitation (15 to 30 mins), luciferase activities of the plates are read in a dual-injector luminometer (BMG lumistar). For this purpose, 50 μl of luciferase assay reagent and 50 μl of ‘Stop & Glo’ buffer are injected sequentially to quantify the activities of both luciferases. The mean Luciferase activity value obtained in wells A11 to H11 (Column 11, TGF-βonly) is considered to represent 100% and values obtained in wells A12 to D12 (cells in medium alone) give a basal level (0%). For each of the compounds tested, a concentration response curve is constructed from which an IC50 value can be determined graphically.

The structures appear in SMILES notation. Where only a bound is given, the exact number is not on record here.

By melting point is commonly meant the temperature, or range, at which the solid turns liquid. What is called IC50 is the concentration that inhibits the measured activity by half. `Nc1nc(-c2ccccn2)c(-c2ccnc(-c3ccc(F)cc3)c2)s1` [Example 3, 5-[2-(4-Fluorophenyl)pyridin-4-yl]-4-pyridin-2-yl-1,3-thiazol-2-amine] showed a melting point of 250 °C. The IC50 in data set [1] is ≤ 5 µM. In turn, `Nc1nc(-c2ccccn2)c(-c2ccnc(-c3ccc(Cl)cc3)c2)s1` [Example 1, 5-[2-(4-Chlorophenyl)pyridin-4-yl]-4-pyridin-2-yl-1,3-thiazol-2-amine] showed a melting point of 256 to 257 °C. Also, the IC50 in data set [1] was ≤ 5 µM. The matching figures for `CCc1ccc(-c2cc(-c3sc(N)nc3-c3ccccn3)ccn2)cc1` [Example 4, 5-[2-(4-Ethylphenyl)pyridin-4-yl]-4-pyridin-2-yl-1,3-thiazol-2-amine]: 238 °C and ≤ 5 µM. Consider `O=C1C=CCC1` [CPO, Cyclopentenone, reference compound], for which, in data set [1] (500 μM CPO in the presence of TGF-β, HepG2 reporter cells), the “firefly and renilla luciferase activities relative to column 11 (TGF-β only); toxicity control” value is given as “around 50%”. `CCOc1ccc(-c2cc(-c3sc(N)nc3-c3ccccn3)ccn2)cc1` [Example 5, 5-[2-(4-Ethoxyphenyl)pyridin-4-yl]-4-pyridin-2-yl-1,3-thiazol-2-amine] came in with a melting point of 246 °C. In addition, the half-maximal inhibitory concentration (IC50) in data set [1] was ≤ 5 µM.

In turn, `Nc1nc(-c2ccccn2)c(-c2ccnc(-c3ccsc3)c2)s1` [Example 6, 5-[2-(Thiophen-3-yl)pyridin-4-yl]-4-pyridin-2-yl-1,3-thiazol-2-amine] came in with a melting point of 244 °C. The IC50 in data set [1] was ≤ 5 µM. For the compound `COc1ccc(-c2cc(-c3sc(N)nc3-c3ccccn3)ccn2)cc1` [Example 2, 5-[2-(4-Methoxyphenyl)pyridin-4-yl]-4-pyridin-2-yl-1,3-thiazol-2-amine], the melting point was found to be 222 °C. Moreover, the IC50 in data set [1] was ≤ 5 µM.

For the origin of these results see US20040077687A1, “Thiazolmines and their use as tgf-beta inhibitors” (priority 2003, published 2004).
